Laboratory results: patent US20240174652A1, “NOVEL DIOXANE DERIVATIVES” (Boehringer Ingelheim International GmbH, priority 2022, published 2024)

Molecular target: human metabotropic Glutamate 4 receptor (Homo sapiens (Human), UniProt Q14833)
Assay: Assay A: in vitro testing of mGluR4 potency (cAMP HTRF, glutamate/forskolin stimulated)
Assay type: cell-based
Settings: HEK293 cells overexpressing human mGluR4; 10 uM L-glutamic acid, 1 uM forskolin; compounds of the present invention
Experimental: A. In Vitro Testing of mGluR4 Potency The in vitro activity of the compounds according to the invention may be investigated as follows:
The HEK293 cell overexpressing the human metabotropic Glutamate 4 receptor are thawed at 37° C. and immediately diluted with cell culture medium. After centrifugation, the cell pellet is re-suspended in medium and then distributed from a stirred spinner flask into the wells of the assay plate. The plates are incubated for one hour at room temperature before they are incubated for 24 hours at 37° C./5% CO2. After washing the cells in the plate three times with 80 uL HBSS/HEPES buffer (10 uL buffer remained in the wells after washing), 5 uL per well of compounds diluted in HBSS/HEPES buffer containing 0.2% BSA (final concentration: 0.1%) and 1 mM IBMX (final concentration: 0.5 mM) are added to the wells of the assay plate. Thereafter 5 uL per well of L-Glutamic acid (final concentration: 10 uM), forskolin (final concentration: 1 uM) and 1 mM IBMX (final concentration: 0.5 mM) dissolved in HBSS/HEPES buffer containing 0.2% BSA (final concentration: 0.1%) are added to the assay plate (final DMSO concentration: 1%). Several wells of the assay plate are used either for the positive and the negative controls or for the cAMP standard curve. The assay plate is incubated for 30 minutes at room temperature. Then 5 ul per well of Anti-cAMP-Antibody-d2 solution and 5 ul per well of cAMP-Europium Cryptate dilution are added to all wells of the plate and the plate is incubated another 60 minutes light protected at room temperature. The emission at 615 nm and 665 nm (Excitation wavelength: 320 nm) are measured on the EnVision™ reader (Perkin Elmer). The ratio between the emission at 665 nm and 615 is calculated by the reader. The whole assay is performed in the dark or under green light.
The cAMP standard is prepared by diluting the cAMP stock solution with HBSS/Hepes buffer: 5 μl/well of the cAMP dilutions (in HBSS/Hepes buffer containing 1 mM IBMX and 0.2% BSA—final concentration: 0.5 mM IBMX and 0.1% BSA) are added to 10 ul/well HBSS/Hepes buffer plus 5 ul/well 4% DMSO in HBSS/Hepes containing 0.2% BSA (final DMSO concentration: 1% —like in the wells containing compounds) in the wells of the assay plate. The final cAMP concentrations in the assay plate are: 0, 0.17, 0.69, 2.78, 11.1, 44.5, 178, and 712 nM (two wells/cAMP concentration).
Each assay microtiter plate contained also wells with vehicle controls instead of compound as controls for L-Glutamic acid induced signal (negative control; 100% CTL; 10 uM L-Glutamic acid+1 uM forskolin+0.5 mM IBMX+1% DMSO) and wells with vehicle controls without L-Glutamic acid as controls for non-specific changes in signal (positive control; 0% CTL; 0 uM L-Glutamic acid+1 uM forskolin+0.5 mM IBMX+1% DMSO).
The analysis of the data is performed by the calculation the ratio between the emission at 665 nm and the emission at 615 nm (Em665/Em615 ratio). Thereafter the signals of the compounds are normalized using the positive and negative controls by the following formula:
PoC=100×((Signal Sample−Positive Control)/(Negative Control−Positive Control))

human metabotropic Glutamate 4 receptor, sequence (Q14833 33-912): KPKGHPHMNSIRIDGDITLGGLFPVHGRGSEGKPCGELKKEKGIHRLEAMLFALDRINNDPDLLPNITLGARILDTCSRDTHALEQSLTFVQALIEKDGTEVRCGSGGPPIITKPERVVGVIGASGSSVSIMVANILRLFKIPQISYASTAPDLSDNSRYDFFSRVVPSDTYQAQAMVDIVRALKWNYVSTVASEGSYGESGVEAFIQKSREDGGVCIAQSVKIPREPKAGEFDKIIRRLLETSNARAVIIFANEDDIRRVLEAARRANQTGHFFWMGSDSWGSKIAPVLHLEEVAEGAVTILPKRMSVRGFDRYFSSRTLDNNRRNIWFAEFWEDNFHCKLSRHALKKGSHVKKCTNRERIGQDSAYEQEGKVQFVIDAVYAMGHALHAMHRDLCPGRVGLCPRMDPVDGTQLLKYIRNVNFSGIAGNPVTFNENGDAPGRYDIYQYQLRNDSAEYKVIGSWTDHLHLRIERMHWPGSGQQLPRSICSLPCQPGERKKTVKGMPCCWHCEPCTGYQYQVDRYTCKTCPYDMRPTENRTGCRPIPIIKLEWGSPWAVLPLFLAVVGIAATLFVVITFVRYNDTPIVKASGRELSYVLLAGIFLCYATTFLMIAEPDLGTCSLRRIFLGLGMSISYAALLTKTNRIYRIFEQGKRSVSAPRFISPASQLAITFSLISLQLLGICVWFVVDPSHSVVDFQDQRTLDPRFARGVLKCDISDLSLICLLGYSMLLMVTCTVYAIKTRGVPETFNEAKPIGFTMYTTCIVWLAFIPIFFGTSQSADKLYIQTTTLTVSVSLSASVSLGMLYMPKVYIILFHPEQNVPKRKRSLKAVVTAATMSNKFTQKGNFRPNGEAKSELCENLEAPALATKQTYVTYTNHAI

| SMILES | IC50 |
| --- | --- |
| Cc1cnc(C(=O)N[C@H](c2nc3cc(C(F)(F)F)ccc3n2C)[C@H]2COCCO2)cn1 [Example 1, N-[(R)-[(2S)-1,4-dioxan-2-yl][1-methyl-5-(trifluoromethyl)-1H-1,3-benzodiazol-2-yl]methyl]-5-methylpyrazine-2-carboxamide] | 20 nM |
| Cc1cnc(C(=O)NC(c2nc3cc(C(F)(F)F)ccc3n2C)C2COCCO2)cn1 (single isomer, unassigned) [Example 1-1, N-[(1,4-dioxan-2-yl)[1-methyl-5-(trifluoromethyl)-1H-1,3-benzodiazol-2-yl]methyl]-5-methylpyrazine-2-carboxamide] | 67 nM |
| Cc1cnc(C(=O)N[C@H](c2nc3ccc(F)cc3n2CC(F)F)[C@H]2COCCO2)cn1 [Example 8, N-[(R)-[1-(2,2-difluoroethyl)-6-fluoro-1H-1,3-benzodiazol-2-yl][(2S)-1,4-dioxan-2-yl]methyl]-5-methylpyrazine-2-carboxamide] | 31 nM |
| Cc1cnc(C(=O)NC(c2nc3ccc(C(F)(F)F)cc3n2C)C2COCCO2)cn1 (single isomer, unassigned) [Example 7, N-[(1,4-dioxan-2-yl)[1-methyl-6-(trifluoromethyl)-1H-1,3-benzodiazol-2-yl]methyl]-5-methylpyrazine-2-carboxamide] | 70 nM |
| Cc1cnc(C(=O)NC(c2nc3cc(Cl)ccc3n2CC(F)F)C2COCCO2)cn1 (single isomer, unassigned) [Example 5] | 62 nM |
| CCn1c(C(NC(=O)c2cnc(C)cn2)C2COCCO2)nc2cc(F)ccc21 (single isomer, unassigned) [Example 10, N-[(1,4-dioxan-2-yl)(1-ethyl-5-fluoro-1H-1,3-benzodiazol-2-yl)methyl]-5-methylpyrazine-2-carboxamide] | 20 nM |

Now from value to molecule:

| IC50 | SMILES |
| --- | --- |
| 6 nM | Cc1cnc(C(=O)NC(c2nc3ccc(C(F)(F)F)cc3n2CC(F)F)C2COCCO2)cn1 (single isomer, unassigned) [Example 6] |
| 7 nM | Cc1cnc(C(=O)NC(c2nc3cc(Cl)ccc3n2CC(F)F)C2COCCO2)cn1 (single isomer, unassigned) [Example 4, N-{[5-chloro-1-(2,2-difluoroethyl)-1H-1,3-benzodiazol-2-yl](1,4-dioxan-2-yl)methyl}-5-methylpyrazine-2-carboxamide] |
| 11 nM | Cc1cnc(C(=O)NC(c2nc3cc(F)c(F)cc3n2CC(F)F)C2COCCO2)cn1 (single isomer, unassigned) [Example 9, N-{[1-(2,2-difluoroethyl)-5,6-difluoro-1H-1,3-benzodiazol-2-yl](1,4-dioxan-2-yl)methyl}-5-methylpyrazine-2-carboxamide] |
| 5 nM | CCn1c([C@@H](NC(=O)c2cnc(C)cn2)[C@H]2COCCO2)nc2cc(C(F)(F)F)ccc21 [Example 3, N-[(R)-[(2S)-1,4-dioxan-2-yl][1-ethyl-5-(trifluoromethyl)-1H-1,3-benzodiazol-2-yl]methyl]-5-methylpyrazine-2-carboxamide] |
| 14 nM | Cc1cnc(C(=O)N[C@H](c2nc3cc(F)ccc3n2CC(F)F)[C@H]2COCCO2)cn1 [Example 2, N-[(R)-[1-(2,2-difluoroethyl)-5-fluoro-1H-1,3-benzodiazol-2-yl][(2S)-1,4-dioxan-2-yl]methyl]-5-methylpyrazine-2-carboxamide] |
| 15 nM | CCn1c(C(NC(=O)c2cnc(C)cn2)C2COCCO2)nc2cc(F)c(F)cc21 (single isomer, unassigned) [Example 11] |

Same assay, conditions: HEK293 cells overexpressing human mGluR4; 10 uM L-glutamic acid, 1 uM forskolin; prior-art compounds of WO2019/138017

| IC50 | SMILES |
| --- | --- |
| > 10000 nM | COc1ccc2[nH]c(C(NC(=O)c3conc3C)C3CCCCCCC3)nc2c1F (centres unmarked) [Example 12 in WO2019/ 138017, reference compound] |
| 5600 nM | CCn1nccc1C(=O)N[C@H](c1nc2ccc(C#N)c(F)c2[nH]1)[C@H]1CC[C@H](C)CC1 [Example 125 in WO2019/ 138017, reference compound] |
| 9850 nM | Cc1nocc1C(=O)N[C@H](c1nc2cccc(F)c2[nH]1)[C@H]1CC[C@H](C)CC1 [Example 8 in WO2019/ 138017, reference compound] |
| 4000 nM | Cn1nccc1C(=O)N[C@H](c1nc2c(F)c(Br)ccc2n1C)[C@H]1CC[C@H](C)CC1 [Intermediate 250 in WO2019/ 138017 (regioisomere 2), reference compound] |
| 6300 nM | Cn1nccc1C(=O)N[C@H](c1nc2c(F)c(Br)ccc2n1C)[C@H]1CC[C@@H](C)CC1 [Intermediate 250 in WO2019/ 138017 (regioisomere 1), reference compound] |
